Type in all cases: cell-based, human
Assay [1] deals with primary cultured airway epithelia derived from humans with CF. The assay is described as follows: ASL pH in primary cultured airway epithelia from CF donors. The method, then:
Airway epithelial cells were obtained from human trachea and bronchi of CF and non-CF specimens obtained from the Iowa Donor Network, either as post-mortem specimens or from tissue deemed not fit for transplant. Studies were approved by the University of Iowa Institutional Review Board. After pronase enzymatic digestion, cells were seeded onto collagen-coated semi-permeable membranes (0.33-1.12 cm^2, Corning 3470 polyester, 3460 polyester, 3413 polycarbonate) and grown at an air-liquid interface (52). Airway epithelial cell cultures were analyzed after they had differentiated and at least 14 days post-seeding.
Small diameter NuLi, CuFi, and primary cultured epithelia were used for this experiment (0.33 cm^2). The ratiometric pH indicator SNARF-conjugated dextran (Molecular Probes) was used to measure ASL pH. SNARF powder was suspended via sonication in perfluorocarbon (FC-72, Sigma) and distributed onto the apical surface. ASL pH was measured 2 hr later (3, 4, 25). SNARF was excited at 488 nm and emission was recorded at 580 nm and 640 nm using a Zeiss LSM 800 microscope at 40× water immersion for cell line cultures and a Zeiss LSM 510 microscope for primary cultures. To generate a standard curve for pH determination, SNARF was dissolved in colorless pH standards and fluorescence ratios were converted to pH.
Agents tested in this assay were first lyophilized into powder and then suspended in the appropriate volume of perfluorocarbon (FC-72, Sigma) and sonicated for 1 minute to suspend. AmBisome should not be sonicated; instead, the fine powder was suspended by vortexing.
In all experiments, ASL pH of compound-treated epithelia was measured compared the results to vehicle-treated epithelia.
For apical AmB administration, cultured airway epithelia were incubated for 30 min-48 hrs at 37° C. before measurement of ASL pH. For AmB-cholesterol complex and C35deOAmB administration, cultured airway epithelia were incubated for 48 hrs at 37° C. before measurement of ASL pH. To test the effect of […] ATPase inhibition, AmB was administered 47 hours prior to 10 mM ouabain addition, and cultured airway epithelia were incubated for an additional 1 hr at 37° C. before measurement of ASL pH. For 10 μM ivacaftor/10 μM forskolin administration, cultured airway epithelia were incubated for 2 hrs at 37° C. before measurement of ASL pH (25). For basolateral AmB administration, a 2 mM stock of AmB in DMSO was diluted 1000-fold to a final concentration of 2 μM in USG media. The basolateral media of cultured airway epithelia was replaced with the AmB-containing USG media and incubated for 48 hrs at 37° C. before measurement of ASL pH.

The next assay relates to CuFi-1 epithelia. The assay is described as follows: ASL height by confocal microscopy. The procedure: ASL height was studied using an established fluorescent dye assay (60, 61). Small diameter NuLi and CuFi-1 cultured epithelia were used for this experiment (0.33 cm^2). 24 hours prior to the start of experiment, the apical side of all cultured epithelia was rinsed three times with warm PBS to remove excess mucus. NuLi epithelia were treated with perfluorocarbon (FC-72) vehicle or 500 µM basolateral bumetanide in DMSO vehicle applied to the media, and CuFi epithelia were treated with 20 μL vehicle, 0.005, 0.5, or 50 μM AmB, or 0.5 μM C35deOAmB suspended in perfluorocarbon (FC-72, Sigma), with or without 500 μM basolateral bumetanide in DMSO vehicle applied to the media and incubated for 24 hours at 37° C. After 24 hours, 2.5 μL of a 2 mg/mL 70 kDa Texas Red-dextran conjugate (Molecular Probes) solution in PBS was added to the apical side of the epithelia, followed by 100 μL of FC-770 to prevent evaporation. Then the culture support was placed on top of 100 μL of PBS on a 10 mm glass bottom Fluorodish for imaging (World Precision Instruments). Epithelia were imaged immediately after dye addition and again at 24 hours to examine dye absorption. Three Z-stack images per membrane were taken on an Zeiss LSM700 confocal microscope at 40× oil immersion. These images were analyzed using ImageJ (62) to determine the average ASL height in the center 1300 pixels of each image. Images were smoothed, converted to 8-bit, and thresholded to most accurately represent the red area. The parameters for Analyze Particles were particles from 1-Infinity μm^2 in size and from 0%-100% circularity. Height was determined by dividing the area output in pixels by the known 1300 pixel width and converted to microns using the known scaling factor of 0.49 µm/pixel.

In assay [2] the test system is CuFi-1 (ΔF508/ΔF508) airway epithelia. As to the kind of experiment: Ussing chamber permeabilization of differentiated CF airway epithelia. The conditions noted are these: differentiated CuFi-1 epithelia. The procedure:
A series of natural products and synthetic compounds reported previously to permeabilize liposomes, cells, and/or nasal epithelia of mice to anions (11-14) were tested using an Ussing chamber and differentiated cultures of airway epithelia derived from an immortalized airway epithelial cell line from a CF patient having the most common ΔF508/ΔF508 genotype (CuFi-1) (15). […] The capacity for AmB and C35deOAmB to transport bicarbonate across cholesterol-containing POPC liposomes was tested using an adapted ^13C NMR-based assay (18).

Assay [3] concerns CuFi-1 (ΔF508/ΔF508) epithelia. As to the kind of experiment: Ussing chamber short-circuit current response to CFTR activation. The following applies: AmB 2 μM, 48 h. The procedure: To assess the presence of membrane-expressed CFTR, differentiated cultures of NuLi and CuFi-1 epithelia grown on Corning Costar 0.4 μm 24-well plate Transwell Clear Polyester Membrane inserts were used. NuLi and CuFi-1 epithelia were treated with 20 μL of perfluorocarbon (FC-72, Sigma) vehicle or 2 μM amphotericin B (AmB) sonicated into a suspension in FC-72. After 48 hours of incubation, the epithelia were mounted in a dual-channel Ussing chamber (Warner U2500) using the culture cup insert for Transwell adapter, 6.5 mm (Warner U9924T-06) and bathed on both the apical and basolateral sides with a HCO3^− solution (120 mM NaCl, 25 mM NaHCO3, 5 mM KCl, 2 mM CaC2, 1.2 mM MgC2, 13.75 mM NaH2PO4, pH 7.0) at 37° C. and gassed with compressed air. Dextrose was added to this solution immediately prior to experiments to a final concentration of 5.6 mM. Epithelial sodium channel (ENaC) and calcium-activated chloride channel (CaCC) were inhibited by apical addition of 1 μM amiloride and 1 μM DIDS (4,4′-disothiocyanostilbene-2,2′-disulfonic acid), respectively, to achieve a baseline for permeabilization. 10 μM forskolin/100 μM IBMX (3-isobutyl-1-methylxanthine) added apically was used to activate CFTR, and 1 μM CFTRinh-172 was used to inhibit CFTR. Each successive addition of reagent was allowed approximately 10 minutes to equilibrate before the addition of the next reagent (15).

“Also recorded” adds a separate entry of the source.

In the case of `C[C@@H]1[C@H](O)[C@@H](C)/C=C/C=C/C=C/C=C/C=C/C=C/C=C/[C@H](O[C@@H]2O[C@H](C)[C@@H](O)[C@H](N)[C@@H]2O)C[C@@H]2O[C@](O)(C[C@@H](O)C[C@@H](O)[C@H](O)CC[C@@H](O)C[C@@H](O)CC(=O)O[C@H]1C)C[C@H](O)[C@H]2C(=O)O` [AmB, amphotericin B], in assay [1] (9 donors, 2 μM, 48 h), the “ASL pH, apical addition” value was “caused an increase in ASL pH across a wide range of different genotypes; also recorded: increased ASL pH; also recorded: restores ASL pH”. For the same compound, the “ASL pH, basolateral addition of AmB” value in assay [1] (AmB 2 μM basolateral, 48 h) is on record as “did not increase ASL pH”. Besides, in assay [1] (apical AmB 2 μM), the “average increase in ASL pH” value came to 0.2 pH units and the “time for which the increase in ASL pH is sustained” value is listed as “at least 48 hours”. In addition, the “ASL height, basolateral AmB” value in the assay with CuFi-1 epithelia is on record as “did not increase ASL height”. Further, the “ASL height, apical addition” value in the assay on CuFi-1 epithelia (0.5 μM) is on record as “increased ASL height in CuFi-1 epithelia to match that of NuLi epithelia; also recorded: increases ASL height”. In assay [2], the “change in short circuit current / permeabilization of epithelia” value was “exceptionally effective in causing a change in short circuit current”. In addition, in assay [3], the “short circuit current response to forskolin/IBMX of AmB-treated epithelia” value is reported as “did not show an increase in short circuit current in response to forskolin/IBMX; also recorded: did not respond to chemical activation of CFTR”.

For the origin of these results see US12090164B2, “Genotype-agnostic rescue of cystic fibrosis with small molecule bicarbonate channels” (The Board of Trustees of the University of Illinois, priority 2017, dated 2024).
